In patent US11390637B2, “Salts of antiviral phosphonate analogues and process for preparation thereof” (CIPLA LIMITED, priority 2017, dated 2022):
Counter-ions that a name gives are not always drawn.

Key:
[1] = In-vitro intrinsic dissolution of 200 mg pellets of API without excipients; assay type: physicochemical; details: for % release of Compound (I) from the respective Salts: Table 8; for % release of Compound (I) from the respective Salts / % release of active from fumarate salt pellet: 200 mg pellet, 0.01N HCl, 37° C., paddle 75 rpm; for % release of active from fumarate salt pellet: Table 7
Method: A tableting mixture (200 mg) comprising solely salts of (((1-(6-amino-9H-purin-9-yl)propan-2-yloxy)methyl) (phenoxy) phosphoryloxy) methyl pivalate-prepared according to any one of the examples 1 to 10 (i.e. with no excipients) was prepared and compressed to a pellet using an automatic KBR press operating at a compression pressure of 2 tones for 2 minutes.
Similarly a tableting mixture (200 mg) comprising a solely TAF (i.e. with no excipients) was prepared and compressed to a pellet using an automatic KBR press operating at a compression pressure of 2 tones for 2 minutes.
A tableting mixture (200 mg) comprising solely TDF (i.e. with no excipients) was prepared and compressed to a pellet using an automatic KBR press operating at a compression pressure of 2 tones for 2 minutes.
In-vitro dissolution studies were performed on the 200 mg pellet in a LAB INDIA DISSO 2000.
The pellet was fixed in a PFTE holder, such that only the pellet surface came into contact with the dissolution medium. The PFTE loaded holder was placed in the dissolution vessel containing 900 ml of 0.1M of HCl having […] at 37±0.5° C. Two pellets were measured for each run of the design of the experiments. Stirring was performed with a paddle rotating at 75 rpm. […]
Dissolution Media: 0.01N HCl
Bath temperature: 37.5° C.
Sample Preparation: Pellets were prepared by pressing sample with 2 ton pressure for 2 min
Note: Aliquots were analysed on HPLC.
The concentration of (((1-(6-amino-9H-purin-9-yl)propan-2-yloxy)methyl) (phenoxy) phosphoryloxy) methyl pivalate was quantified by HPLC UV method at a maximum wavelength of 300 nm under the conditions as specified below:
Standard Preparation: 25 mg standard dissolved to 25 ml with dissolution medium. 5 ml of this solution diluted to 25 ml with dissolution medium. Further 5 ml of this solution was diluted to 10 ml with diluent.
Sample Preparation: 200 mg of Sample pellets were prepared and subjected to dissolution. 10 ml of Aliquot was removed from the dissolution basket at predetermined time intervals. 5 ml of these aliquot was diluted to 10 ml with Diluent.
200 mg of input API of fumarate salt of (((1-(6-amino-9H-purin-9-yl)propan-2-yloxy)methyl) (phenoxy) phosphoryloxy) methyl pivalate used for pellet preparation.
The percentage of (((1-(6-amino-9H-purin-9-yl)propan-2-yloxy)methyl) (phenoxy) phosphoryloxy) methyl pivalate (TD), Tenofovir Alafenamide (TAF) and Tenofovir Disoproxil (TDF) released from the respective fumarate salt tablet were plotted against time as shown in FIG. 19. The intrinsic dissolution rate was derived from the slope of this curve.
To measure the intrinsic dissolution of the Salts of (((1-(6-amino-9H-purin-9-yl)propan-2-yloxy)methyl) (phenoxy) phosphoryloxy) methyl pivalate, samples were measured to compare the influence of the different parameter settings. At appropriate time intervals, an automated sample collector removes aliquots from the dissolution medium for analysis. The time interval for sampling can vary, for example, from 5 to 120 minutes, depending on the properties of the drug and dissolution medium used. Suitable dissolution equipment for these operations includes LAB INDIA DISSO 2000. Bath temperature—37.5° C.
200 mg of input API of each fumarate, oxalate, phosphate, citrate, succinate and tartrate Salts of (((1-(6-amino-9H-purin-9-yl)propan-2-yloxy)methyl) (phenoxy) phosphoryloxy) methyl pivalate used for pellet preparation.
The percentage of (((1-(6-amino-9H-purin-9-yl)propan-2-yloxy)methyl) (phenoxy) phosphoryloxy) methyl pivalate released from the respective salts tablet were plotted against time as shown in FIG. 20. The intrinsic dissolution rate was derived from the slope of this curve.

[2] = Solubility in physiologically acceptable solvents (statement, no method described); details: in words
[3] = Hygroscopicity (statement, no method described); assay type: physicochemical; details: in words

Q: For `CC(Cn1cnc2c(N)ncnc21)OCP(=O)(OCOC(=O)C(C)(C)C)Oc1ccccc1.O=C(O)CC(O)(CC(=O)O)C(=O)O` (stereo not drawn) [Citrate, (((1-(6-amino-9H-purin-9-yl)propan-2-yloxy)methyl) (phenoxy)phosphoryloxy) methyl pivalate citric acid salt], which “% release of Compound (I) from the respective Salts” value (from here on “% release of Compound (I)”) ([1]; 5 min) is on record?
A: 4%

Q: What about the “% release of Compound (I)” value ([1]; 15 min) of the same compound?
A: 12%

Q: What about the “% release of Compound (I)” value ([1]; 30 min) of the same compound?
A: 23%

Q: What about the “% release of Compound (I)” value ([1]; 45 min) of the same compound?
A: 33%

Q: What about the “% release of Compound (I)” value ([1]; 60 min) of the same compound?
A: 42%

Q: And the “% release of Compound (I)” value ([1]; 90 min)?
A: 63%

Q: And the “% release of Compound (I)” value ([1]; 120 min)?
A: 70%

Q: And the “% release of Compound (I)” value ([1]; 150 min)?
A: 66%

Q: What about the “% release of Compound (I)” value ([1]; 180 min) of the same compound?
A: 67%

Q: What about the “% release of Compound (I)” value ([1]; 210 min) of the same compound?
A: 66%

Q: And the “% release of Compound (I)” value ([1]; 240 min)?
A: 69%

Q: And the “solubility in physiologically acceptable solvents” value [2]?
A: readily soluble

Q: And the hygroscopicity [3]?
A: not hygroscopic

Q: For `CC(Cn1cnc2c(N)ncnc21)OCP(=O)(OCOC(=O)C(C)(C)C)Oc1ccccc1.O=C(O)C(O)C(O)C(=O)O` (stereo not drawn) [Tartrate, (((1-(6-amino-9H-purin-9-yl)propan-2-yloxy)methyl) (phenoxy)phosphoryloxy) methyl pivalate tartaric acid salt], which “% release of Compound (I)” value ([1]; 5 min) is on record?
A: 2%

Q: And the “% release of Compound (I)” value ([1]; 15 min)?
A: 6%

Q: What about the “% release of Compound (I)” value ([1]; 30 min) of the same compound?
A: 12%

Q: What about the “% release of Compound (I)” value ([1]; 45 min) of the same compound?
A: 17%

Q: What about the “% release of Compound (I)” value ([1]; 60 min) of the same compound?
A: 24%

Q: What about the “% release of Compound (I)” value ([1]; 90 min) of the same compound?
A: 35%

Q: And the “% release of Compound (I)” value ([1]; 120 min)?
A: 47%

Q: What about the “% release of Compound (I)” value ([1]; 150 min) of the same compound?
A: 59%

Q: And the “% release of Compound (I)” value ([1]; 180 min)?
A: 70%

Q: What about the “% release of Compound (I)” value ([1]; 210 min) of the same compound?
A: 80%

Q: What about the “% release of Compound (I)” value ([1]; 240 min) of the same compound?
A: 88%

Q: Which “% release of active from fumarate salt pellet” value (shortened to “% release of active”) ([1]; 5 min) does the source give for `CC(Cn1cnc2c(N)ncnc21)OCP(=O)(OCOC(=O)C(C)(C)C)Oc1ccccc1.O=C(O)/C=C/C(=O)O` (stereo not drawn) [Fumarate, (((1-(6-amino-9H-purin-9-yl)propan-2-yloxy)methyl) (phenoxy)phosphoryloxy) methyl pivalate fumaric acid salt] here?
A: 7%

Q: And the “% release of Compound (I)” value ([1]; 5 min)?
A: 3%

Q: And the “% release of active” value ([1]; 10 min)?
A: 5%

Q: And the “% release of active” value ([1]; 15 min)?
A: 6%

Q: And the “% release of Compound (I)” value ([1]; 15 min)?
A: 7%

Q: What about the “% release of active” value ([1]; 30 min) of the same compound?
A: 12%

Q: What about the “% release of Compound (I)” value ([1]; 30 min) of the same compound?
A: 12%

Q: What about the “% release of active” value ([1]; 45 min) of the same compound?
A: 18%

Q: And the “% release of Compound (I)” value ([1]; 45 min)?
A: 18%

Q: What about the “% release of active” value ([1]; 60 min) of the same compound?
A: 24%

Q: And the “% release of Compound (I)” value ([1]; 60 min)?
A: 24%

Q: What about the “% release of active” value ([1]; 90 min) of the same compound?
A: 35%

Q: And the “% release of Compound (I)” value ([1]; 90 min)?
A: 35%

Q: And the “% release of active” value ([1]; 120 min)?
A: 45%

Q: And the “% release of Compound (I)” value ([1]; 120 min)?
A: 45%

Q: What about the “% release of Compound (I)” value ([1]; 150 min) of the same compound?
A: 56%

Q: What about the “% release of Compound (I)” value ([1]; 180 min) of the same compound?
A: 66%

Q: What about the “% release of Compound (I)” value ([1]; 210 min) of the same compound?
A: 75%

Q: And the “% release of Compound (I)” value ([1]; 240 min)?
A: 83%

Q: What about the “dissolution profile compared with TAF and TDF” value ([1]; in words, from the data of Table 7) of the same compound?
A: slow dissolution profile than TAF and TDF

Q: With `CC(Cn1cnc2c(N)ncnc21)OCP(=O)(OCOC(=O)C(C)(C)C)Oc1ccccc1.O=C(O)C(=O)O` (stereo not drawn) [Oxalate, (((1-(6-amino-9H-purin-9-yl)propan-2-yloxy)methyl) (phenoxy)phosphoryloxy) methyl pivalate oxalic acid salt] as the compound, how does the “% release of Compound (I)” value ([1]; 5 min) read?
A: 2%

Q: And the “% release of Compound (I)” value ([1]; 15 min)?
A: 4%

Q: And the “% release of Compound (I)” value ([1]; 30 min)?
A: 7%

Q: And the “% release of Compound (I)” value ([1]; 45 min)?
A: 10%

Q: And the “% release of Compound (I)” value ([1]; 60 min)?
A: 15%

Q: What about the “% release of Compound (I)” value ([1]; 90 min) of the same compound?
A: 23%

Q: And the “% release of Compound (I)” value ([1]; 120 min)?
A: 31%

Q: And the “% release of Compound (I)” value ([1]; 150 min)?
A: 40%

Q: What about the “% release of Compound (I)” value ([1]; 180 min) of the same compound?
A: 46%

Q: What about the “% release of Compound (I)” value ([1]; 210 min) of the same compound?
A: 53%

Q: And the “% release of Compound (I)” value ([1]; 240 min)?
A: 60%

Q: And the “dissolution profile compared to other salts” value ([1]; in words, from the data of Table 8)?
A: slowest dissolution profile

Q: What about the “solubility in physiologically acceptable solvents” value [2] of the same compound?
A: readily soluble

Q: What about the hygroscopicity [3] of the same compound?
A: not hygroscopic

Q: Which “% release of active” value ([1]; 5 min) does the source give for `CC(C)OC(=O)[C@H](C)N[P@](=O)(CO[C@H](C)Cn1cnc2c(N)ncnc21)Oc1ccccc1` [TAF, Tenofovir Alafenamide Fumarate, reference compound] here?
A: 6%

Q: What about the “% release of active” value ([1]; 10 min) of the same compound?
A: 7%

Q: And the “% release of active” value ([1]; 15 min)?
A: 9%

Q: And the “% release of active” value ([1]; 30 min)?
A: 16%

Q: What about the “% release of active” value ([1]; 45 min) of the same compound?
A: 24%

Q: What about the “% release of active” value ([1]; 60 min) of the same compound?
A: 31%

Q: And the “% release of active” value ([1]; 90 min)?
A: 46%

Q: And the “% release of active” value ([1]; 120 min)?
A: 60%

Q: For `CC(C)OC(=O)OCOP(=O)(CO[C@H](C)Cn1cnc2c(N)ncnc21)OCOC(=O)OC(C)C` [TDF, Tenofovir Disoproxil Fumarate, reference compound], which “% release of active” value ([1]; 5 min) is on record?
A: 8%

Q: And the “% release of active” value ([1]; 10 min)?
A: 5%

Q: And the “% release of active” value ([1]; 15 min)?
A: 7%

Q: What about the “% release of active” value ([1]; 30 min) of the same compound?
A: 13%

Q: And the “% release of active” value ([1]; 45 min)?
A: 19%

Q: And the “% release of active” value ([1]; 60 min)?
A: 26%

Q: And the “% release of active” value ([1]; 90 min)?
A: 37%

Q: And the “% release of active” value ([1]; 120 min)?
A: 50%

Q: Which results are given for `CC(Cn1cnc2c(N)ncnc21)OCP(=O)(OCOC(=O)C(C)(C)C)Oc1ccccc1.O=C(O)CCC(=O)O` (stereo not drawn) [Succinate, (((1-(6-amino-9H-purin-9-yl)propan-2-yloxy)methyl) (phenoxy)phosphoryloxy) methyl pivalate succinic acid salt]?
A: % release of Compound (I) from the respective Salts ([1]; 5 min): 3%; % release of Compound (I) from the respective Salts ([1]; 15 min): 3%; % release of Compound (I) from the respective Salts ([1]; 30 min): 16%; % release of Compound (I) from the respective Salts ([1]; 45 min): 23%; % release of Compound (I) from the respective Salts ([1]; 60 min): 30%; % release of Compound (I) from the respective Salts ([1]; 90 min): 45%; % release of Compound (I) from the respective Salts ([1]; 120 min): 59%; % release of Compound (I) from the respective Salts ([1]; 150 min): 74%; % release of Compound (I) from the respective Salts ([1]; 180 min): 85%; % release of Compound (I) from the respective Salts ([1]; 210 min): 90%; % release of Compound (I) from the respective Salts ([1]; 240 min): 92%; solubility in physiologically acceptable solvents [2]: readily soluble; hygroscopicity [3]: not hygroscopic
